The test system of test [1] is PDE4 partially purified from human U-937 pronocytic cells. As to the kind of experiment: PDE4 biochemical enzyme assay ([3H]cAMP hydrolysis). The following applies: 100 μM test substance; 1 μM cAMP, Tris pH 7.5, 20 min, 30° C. An excerpt:
(§1) In this example, racemic flosequinan, (R)-(+)-flosequinan, and (S)-(−)-flosequinan were subjected to biochemical enzyme assays to determine their respective percent inhibition of a variety of phosphodiesterases (PDE1-PDE6). The (R)-(+)-flosequinan and (S)-(−)-flosequinan used in this example was resolved by high-performance liquid chromatography (HPLC) as follows. A 5.0 g sample of a racemic mixture of flosequinan was resolved over a 10 cm ID×50 cm L CHIRALCEL OD HPLC column (Chiral Technologies, Exton, Pa.) at 25° C. and with a flow rate of 1.0 ml/minute such that the column pressure was 37 bar. The mobile phase employed was 100% methanol and the detection of the mixture was performed at 270 nm. […] A total of 2.1 g of the (−) enantiomer having an optical purity greater than 99% was produced. A total of 2.3 g of the (+) enantiomer having an optical purity greater than 99% was produced.
(§2) PDE4: PDE4 partially purified from human U-937 pronocytic cells was used. A racemic mixture of flosequinan, and each enantiomer of flosequinan, all at a molar concentration of 100 μM, were independently incubated with 20 μg PDE4 enzyme and 1 μM cAMP containing 0.01 μM [^3H]cAMP in Tris buffer pH 7.5 for 20 minutes at 30° C. The reaction was terminated by boiling for 2 minutes, and the resulting AMP was converted to adenosine by addition of 10 mg/ml snake venom nucleotidase and further incubation at 30° C. for 10 minutes. Unhydrolyzed cAMP was bound to AGI-X2 resin, and the remaining [^3H]adenosine in the aqueous phase was quantitated by scintillation counting.

Test [2] concerns the target T1, PDE5 partially purified from human platelets (Homo sapiens, UniProt O76074).
T1 construct: PDE5 partially purified from human platelets was used; from tissue; host or cells: human platelets
The experiment in a line: PDE5 biochemical enzyme assay ([3H]cGMP hydrolysis). As to conditions: 100 μM test substance; 1 μM cGMP, Tris pH 7.5, 20 min, 30° C.
Text: as §1
PDE5: PDE5 partially purified from human platelets was used. A racemic mixture of flosequinan, and each enantiomer of flosequinan, all at a molar concentration of 100 μM, were independently incubated with 120 μg PDE5 enzyme and 1 μM cGMP containing 0.01 μM [^3H]cGMP in Tris buffer pH 7.5 for 20 minutes at 30° C. The reaction was terminated by boiling for 2 minutes, and the resulting GMP was converted to guanosine by addition of 10 mg/ml snake venom nucleotidase and further incubation at 30° C. for 10 minutes. Unhydrolyzed cGMP was bound to AGI-X2 resin, and the remaining [^3H]guanosine in the aqueous phase was quantitated by scintillation counting.

Test [3] concerns the target T2, PDE2 partially purified from human platelets (Homo sapiens, UniProt O00408).
T2 construct: PDE2 partially purified from human platelets was used; from tissue; host or cells: human platelets
The experiment in a line: PDE2 biochemical enzyme assay ([3H]cAMP hydrolysis). As to conditions: 100 μM test substance; 25 μM cAMP, Tris pH 7.5, 20 min, 30° C.
Text: as §1
as §2, with “PDE2: PDE2 partially” for “PDE4: PDE4 partially”, “human platelets” for “human U-937 pronocytic cells”, “with 23” for “with 20”, “μg PDE2 enzyme, 25” for “μg PDE4 enzyme and 1”, “containing 0.05” for “containing 0.01”

In test [4] the test system is PDE1 partially purified from bovine heart. The experiment in a line: PDE1 biochemical enzyme assay ([3H]cAMP hydrolysis). The following applies: 100 μM test substance; 1.0 μM [3H]cAMP, calmodulin, Tris pH 7.5, 20 min, 30° C.
Text: as §1
as §2, with “PDE1: PDE1 partially” for “PDE4: PDE4 partially”, “from bovine heart” for “from human U-937 pronocytic cells”, “with 13” for “with 20”, “μg PDE1 enzyme, 1.0” for “μg PDE4 enzyme and 1 μM cAMP containing 0.01”, “[^3H]cAMP and Cal2/calmodulin” for “[^3H]cAMP”

The target in test [5] is T3, PDE6 partially purified from bovine retinal rod and activated by trypsin (Bos taurus, UniProt P11541+P23439).
T3 construct: from tissue; host or cells: bovine retinal rod
T3 sequence (P11541 2-856 limits assumed): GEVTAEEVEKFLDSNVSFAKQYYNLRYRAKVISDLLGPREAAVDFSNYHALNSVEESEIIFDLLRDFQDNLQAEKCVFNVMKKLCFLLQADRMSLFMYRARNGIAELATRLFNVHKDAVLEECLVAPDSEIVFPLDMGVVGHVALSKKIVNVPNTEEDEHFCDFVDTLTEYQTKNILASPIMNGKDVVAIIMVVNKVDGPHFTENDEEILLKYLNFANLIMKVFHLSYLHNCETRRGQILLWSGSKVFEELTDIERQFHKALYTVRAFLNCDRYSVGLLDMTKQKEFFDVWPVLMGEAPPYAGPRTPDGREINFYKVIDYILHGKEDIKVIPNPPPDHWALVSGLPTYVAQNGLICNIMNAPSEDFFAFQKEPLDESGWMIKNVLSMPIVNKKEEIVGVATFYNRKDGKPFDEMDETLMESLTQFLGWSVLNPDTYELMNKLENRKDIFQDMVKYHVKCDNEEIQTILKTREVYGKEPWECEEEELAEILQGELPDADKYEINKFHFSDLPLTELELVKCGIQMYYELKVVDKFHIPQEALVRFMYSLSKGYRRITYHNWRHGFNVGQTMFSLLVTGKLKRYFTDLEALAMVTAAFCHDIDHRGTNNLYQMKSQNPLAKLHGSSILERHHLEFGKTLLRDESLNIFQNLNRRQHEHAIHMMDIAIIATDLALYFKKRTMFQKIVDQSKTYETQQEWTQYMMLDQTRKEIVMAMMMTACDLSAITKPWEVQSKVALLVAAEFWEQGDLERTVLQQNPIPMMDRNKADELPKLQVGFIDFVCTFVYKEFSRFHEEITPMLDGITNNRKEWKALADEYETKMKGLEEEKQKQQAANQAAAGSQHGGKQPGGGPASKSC
T3 sequence (P23439 2-850 limits assumed): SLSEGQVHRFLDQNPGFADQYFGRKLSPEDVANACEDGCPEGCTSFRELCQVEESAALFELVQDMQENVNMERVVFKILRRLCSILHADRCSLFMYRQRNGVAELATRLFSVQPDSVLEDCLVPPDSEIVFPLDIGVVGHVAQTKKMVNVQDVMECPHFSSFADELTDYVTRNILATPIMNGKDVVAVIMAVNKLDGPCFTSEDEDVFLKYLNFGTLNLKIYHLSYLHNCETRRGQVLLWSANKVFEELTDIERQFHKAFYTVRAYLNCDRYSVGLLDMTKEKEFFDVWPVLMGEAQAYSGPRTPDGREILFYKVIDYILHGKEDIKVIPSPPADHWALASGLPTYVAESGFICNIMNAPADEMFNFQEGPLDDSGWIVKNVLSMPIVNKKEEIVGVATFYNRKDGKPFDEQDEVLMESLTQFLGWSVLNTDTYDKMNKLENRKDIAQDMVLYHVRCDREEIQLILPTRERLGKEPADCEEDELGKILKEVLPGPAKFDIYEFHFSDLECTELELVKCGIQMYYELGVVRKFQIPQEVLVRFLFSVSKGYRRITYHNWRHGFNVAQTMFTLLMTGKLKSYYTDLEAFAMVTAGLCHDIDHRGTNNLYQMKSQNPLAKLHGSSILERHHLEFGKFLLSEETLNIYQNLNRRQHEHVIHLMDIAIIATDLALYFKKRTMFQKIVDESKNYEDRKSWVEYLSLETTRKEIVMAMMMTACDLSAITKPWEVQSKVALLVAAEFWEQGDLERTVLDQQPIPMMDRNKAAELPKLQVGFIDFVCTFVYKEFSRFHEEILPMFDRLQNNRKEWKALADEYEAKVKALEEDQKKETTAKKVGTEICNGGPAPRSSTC
The experiment in a line: PDE6 biochemical enzyme assay ([3H]cGMP hydrolysis). The following applies: 100 μM test substance; 100 μM cGMP, Tris pH 7.5, 20 min, 30° C.
Text: as §1
PDE6: PDE6 partially purified from bovine retinal rod and activated by trypsin was used. A racemic mixture of flosequinan, and each enantiomer of flosequinan, all at a molar concentration of 100 μM, were independently incubated with 0.2 μg/ml active PDE6 and 100 μM cGMP containing 0.1 μM [^3H]cGMP in Tris buffer pH 7.5 for 20 minutes at 30° C. […] Unhydrolyzed cGMP was bound to AGI-X2 resin, and [^3H]guanosine remaining in the aqueous phase was quantitated by scintillation counting.

Test [6] concerns the target T4, PDE3 partially purified from human platelets (Homo sapiens, UniProt Q14432).
T4 construct: PDE3 partially purified from human platelets was used; from tissue; host or cells: human platelets
As to the kind of experiment: PDE3 biochemical enzyme assay ([3H]cAMP hydrolysis). As to conditions: 100 μM test substance; 1 μM cAMP, Tris pH 7.5, 20 min, 30° C.
Text: as §1
PDE3: PDE3 partially purified from human platelets was used. A racemic mixture of flosequinan, and each enantiomer of flosequinan, all at a molar concentration of 100 μM, were independently incubated with 13 μg PDE3 enzyme and 1 μM cAMP containing 0.01 μM [^3H]cAMP in Tris buffer pH 7.5 for 20 minutes at 30° C. […] Unhydrolyzed cAMP was bound to AGI-X2 resin, and the remaining [^3H]adenosine in the aqueous phase was quantitated by scintillation counting.

T2 sequence (O00408 whole entry): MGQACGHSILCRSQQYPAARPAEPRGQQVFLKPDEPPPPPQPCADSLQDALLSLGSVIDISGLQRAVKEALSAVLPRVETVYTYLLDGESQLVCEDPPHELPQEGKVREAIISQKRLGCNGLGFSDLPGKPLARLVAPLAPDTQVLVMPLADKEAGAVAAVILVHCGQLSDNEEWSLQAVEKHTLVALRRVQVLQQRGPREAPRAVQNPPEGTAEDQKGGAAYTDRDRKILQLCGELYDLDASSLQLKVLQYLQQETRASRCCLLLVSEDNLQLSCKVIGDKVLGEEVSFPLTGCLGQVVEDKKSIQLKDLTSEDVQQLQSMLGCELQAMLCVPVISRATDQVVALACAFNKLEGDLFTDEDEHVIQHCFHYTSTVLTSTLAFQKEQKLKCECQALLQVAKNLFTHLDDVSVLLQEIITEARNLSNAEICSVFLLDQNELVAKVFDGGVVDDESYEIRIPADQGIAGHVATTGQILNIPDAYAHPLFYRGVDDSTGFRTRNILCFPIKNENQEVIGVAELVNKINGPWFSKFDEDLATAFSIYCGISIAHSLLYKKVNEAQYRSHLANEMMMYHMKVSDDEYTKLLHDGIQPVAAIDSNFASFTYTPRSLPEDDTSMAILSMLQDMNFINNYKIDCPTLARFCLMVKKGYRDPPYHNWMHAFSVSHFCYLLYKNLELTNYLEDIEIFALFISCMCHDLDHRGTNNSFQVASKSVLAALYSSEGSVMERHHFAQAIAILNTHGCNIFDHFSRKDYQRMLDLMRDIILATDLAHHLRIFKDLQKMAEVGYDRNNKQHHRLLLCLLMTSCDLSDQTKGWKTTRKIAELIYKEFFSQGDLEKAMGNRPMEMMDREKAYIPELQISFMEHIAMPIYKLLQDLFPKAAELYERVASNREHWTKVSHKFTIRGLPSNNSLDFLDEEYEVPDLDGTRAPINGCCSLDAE
T4 sequence (Q14432 whole entry): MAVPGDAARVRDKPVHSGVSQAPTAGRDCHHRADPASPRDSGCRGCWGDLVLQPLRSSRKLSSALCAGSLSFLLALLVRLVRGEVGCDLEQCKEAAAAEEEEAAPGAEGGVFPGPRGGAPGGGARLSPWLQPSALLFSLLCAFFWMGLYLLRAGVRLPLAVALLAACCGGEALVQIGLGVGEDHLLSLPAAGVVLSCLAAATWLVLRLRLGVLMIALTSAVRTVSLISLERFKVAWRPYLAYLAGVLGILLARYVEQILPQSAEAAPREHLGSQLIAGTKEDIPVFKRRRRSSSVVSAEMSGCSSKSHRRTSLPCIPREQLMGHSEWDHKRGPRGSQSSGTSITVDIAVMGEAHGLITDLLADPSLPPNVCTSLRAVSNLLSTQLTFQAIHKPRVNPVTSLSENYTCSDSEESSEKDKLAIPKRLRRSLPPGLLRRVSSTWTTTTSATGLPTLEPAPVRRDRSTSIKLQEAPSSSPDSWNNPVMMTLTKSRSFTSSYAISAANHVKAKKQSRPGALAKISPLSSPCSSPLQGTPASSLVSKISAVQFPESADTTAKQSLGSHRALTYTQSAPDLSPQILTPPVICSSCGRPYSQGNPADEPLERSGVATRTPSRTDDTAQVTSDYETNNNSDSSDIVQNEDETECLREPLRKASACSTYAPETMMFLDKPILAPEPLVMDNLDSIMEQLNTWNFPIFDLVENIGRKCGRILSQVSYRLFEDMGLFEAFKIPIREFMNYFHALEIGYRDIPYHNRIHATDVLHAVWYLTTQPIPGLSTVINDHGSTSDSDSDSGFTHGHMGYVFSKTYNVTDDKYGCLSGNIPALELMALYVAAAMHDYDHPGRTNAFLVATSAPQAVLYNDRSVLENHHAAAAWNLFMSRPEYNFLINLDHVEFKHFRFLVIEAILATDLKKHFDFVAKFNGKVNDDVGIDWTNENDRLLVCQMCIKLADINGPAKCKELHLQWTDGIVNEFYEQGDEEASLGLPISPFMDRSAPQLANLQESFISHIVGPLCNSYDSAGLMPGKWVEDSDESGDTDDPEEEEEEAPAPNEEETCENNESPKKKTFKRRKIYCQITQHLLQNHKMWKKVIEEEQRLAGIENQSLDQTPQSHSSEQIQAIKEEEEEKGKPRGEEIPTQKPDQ

As for `Cn1cc([S+](C)[O-])c(=O)c2ccc(F)cc21` (racemic) [racemic mixture of flosequinan, 7-fluoro-1-methyl-3-methylsulfinyl-4-quinolone, reference compound], the “% Inhibition of PDE4” value in test [1] is 24%. For the same molecule, the inhibition at 100 µM in test [2] amounted to 11%; in test [3], 18%. Besides, the “% Inhibition of PDE1” value in test [4] is recorded as 31%.

Take `Cn1cc([S@@+](C)[O-])c(=O)c2ccc(F)cc21` [(+)-flosequinan, (R)-(+)-7-fluoro-1-methyl-3-methylsulfinyl-4-quinolone]: the “% Inhibition of PDE6” value in test [5] is 22%. In test [1], the “% Inhibition of PDE4” value turned out to be 6%. Besides, the figures for the inhibition at 100 µM in test [2], in test [3] and in test [6] were 17%, 18% and 32%, respectively. Further, in test [4], the “% Inhibition of PDE1” value turned out to be 28%.

On to `Cn1cc([S@+](C)[O-])c(=O)c2ccc(F)cc21` [(−)-flosequinan, (S)-(−)-7-fluoro-1-methyl-3-methylsulfinyl-4-quinolone], for which the “% Inhibition of PDE4” value in test [1] is 1%. Also, the inhibition at 100 µM turned out to be 10% in test [2], 13% in test [3] and 5% in test [6]. Further, the “% Inhibition of PDE1” value in test [4] came out at 11%.

Values taken from patent US7084275B2, “Stereospecific enrichment of heterocyclic enantiomers” (R. T. Alamo Ventures I, LLC, priority 2001, dated 2006).
